Where “and” joins values, the source holds several entries; their conditions need not be identical. Equal values may be shown once. Read-outs that look alike come from different tables or passages of the source.
Tests used:
[1] = Pharmacokinetics after oral administration in rats; assay type: in vivo, Sprague Dawley (SD) rats; details: for AUC∞/D / Cmax/D: dose normalized; for Cmax/D: in (ng/mL)/(mg/kg); for AUC(0-t) / AUC(0-inf) / Cmax / half-life / MRT / Tmax / bioavailability: rat, plasma; for bioavailability: po
Description: Rats were fasted with water ad libitum for at least 12 h before the oral administration of enavogliflozin. Eighteen rats were randomly divided into three groups (n = 6 per each group) and administered the drug dissolved in a mixture of 10% DMSO and 90% saline at doses of 0.3, 1, and 3 mg/kg by oral gavage. Blood samples were collected at 0, 0.083, 0.25, 0.5, 1, 2, 4, 6, 8, and 24 h with the same procedures described above.
(§1) Concentrations of enavogliflozin in plasma and tissue homogenate samples were analyzed using an Agilent 6430 triple quadrupole liquid chromatography-mass spectrometry (LC–MS/MS) system (Agilent, Wilmington, DE, USA) following a previously published method.
(§2) The data were expressed as the means ± standard deviation for the groups. Pharmacokinetic parameters, such as the area under the plasma concentration–time curve during the period of observation (AUClast), AUC to infinite time (AUC∞), clearance (CL), and volume of distribution at steady-state (Vd,ss), the terminal half-life (t1/2), and mean residence time (MRT) were calculated using non-compartment analysis with WinNonlin software (version 5.1; Pharsights, Cary, NC, USA). The AUC ratios were calculated by dividing the AUClast of enavogliflozin in the tissue samples by the plasma AUClast values of enavogliflozin [15].

[2] = Recovery from urine and feces over 72 h in mice; assay type: in vivo, ICR mice; details: for Recovery, Feces / Recovery, Urine: parent form
Description: Three mice received enavogliflozin (1 mg/kg) intravenously and were returned to metabolic cages with food and water ad libitum and urine and feces samples were collected every 24 h for 72 h. Urine and feces were weighed, and 30 µL aliquots of urine and 50 µL aliquots of 10% feces homogenates were stored at −80 °C until enavogliflozin analysis. Four mice received enavogliflozin (1 mg/kg) by oral gavage and were returned to their metabolic cages to collect urine and feces samples every 24 h for 72 h with the same protocols described above.
as §1
Aliquots of plasma or urine (30 µL each) and tissue homogenate (50 µL each) were added to 100 µL of aqueous solution of d4-enavogliflozin (IS, 20 ng/mL), and vigorously mixed with 500 µL MTBE for 15 min. After centrifugation at 16,000× g for 5 min, samples were kept for 1 h, at a temperature of −80 °C to freeze the aqueous layer freeze. The organic upper layer was then transferred to a clean tube and evaporated to dryness under a gentle stream of nitrogen. The dried extract was reconstituted in 150 µL of mobile phase, and a 3 µL aliquot was injected into the LC–MS/MS system. Enavogliflozin was separated on a Synergi Polar RP column (2.0 × 150 mm, 4 µm particle size; Phenomenex, Torrence, CA, USA) using a isocratic mobile phase consisting of water (15%) and methanol (85%) containing 0.1% formic acid at a flow rate of 0.25 mL/min.

[3] = Tissue distribution after single or repeated oral administration (7 or 14 days) in mice; assay type: in vivo, ICR mice; details: for Kp / AUC(0-t): ICR, mouse, po, 1 mg/kg; for Kp: read-out: AUC Ratio (AUC48 h, tissue / AUC48 h, plasma); for AUC(0-t): plasma, read-out: AUC48 h; for AUC48 h: oral 1 mg/kg
Description: Thirty-five ICR mice were randomly divided into five groups (n = 7 per sampling time point) and administered with an enavogliflozin solution (1 mg/kg, once daily) for 14 days via oral gavage. Another thirty-five ICR mice were randomly divided into five groups (n = 7 per sampling time point) and administered with an enavogliflozin solution (1 mg/kg, once daily) for 7 days via oral gavage. The other thirty-five ICR mice were randomly divided into five groups (n = 7 per sampling time point) and administered with an enavogliflozin solution at a dose of 1 mg/kg via oral gavage. Blood samples (approximately 0.2 mL) were collected at 1, 2, 8, 24, and 48 h via the abdominal artery. Subsequently, whole tissues, including kidney, liver, small intestine, and large intestine, were isolated. An aliquot (30 µL) of plasma and aliquots (50 µL) of tissue homogenate samples were prepared and stored with the same procedures described above.
as §1, §2

hepatocytes [4] = system: hepatocytes; parameters: method as in PMID 32932946; details: rat hepatocytes; cited from earlier work
hepatocytes [5] = system: hepatocytes; parameters: method as in PMID 32932946; details: dog hepatocytes; cited from earlier work
hepatocytes [6] = system: hepatocytes; parameters: method as in PMID 32932946; details: monkey hepatocytes; cited from earlier work
hepatocytes [7] = system: hepatocytes; parameters: method as in PMID 32932946; details: human cells (hepatocytes); cited from earlier work

## OC[C@H]1O[C@@H](c2cc(Cc3ccc(C4CC4)cc3)c(Cl)c3c2CCO3)[C@H](O)[C@@H](O)[C@@H]1O [enavogliflozin, (2S,3R,4R,5S,6R)-2-(7-chloro-6-(4-cyclopropylbenzyl) -2,3-dihydrobenzofuran-4-yl)-6-(hydroxymethyl)tetrahydro-2H-pyran-3,4,5-triol]
[1]; PO 0.3 mg/kg
  AUC∞/D: 1757.6 ± 643.4
  Cmax/D: 171.2 ± 49.9
[1]; PO 1 mg/kg
  AUC∞/D: 1649.3 ± 483.4
  Cmax/D: 183.0 ± 95.6
[1]; PO 3 mg/kg
  AUC∞/D: 1385.4 ± 361.8
  Cmax/D: 100.2 ± 36.1
[1]; Sprague Dawley, PO 0.3 mg/kg
  AUC(0-t): 489 ± 192 ng·h/mL
[1]; Sprague Dawley, PO 1 mg/kg
  AUC(0-t): 1350 ± 565 ng·h/mL
[1]; Sprague-Dawley, PO 0.3 mg/kg
  AUC(0-inf): 527 ± 193 ng·h/mL
  Cmax: 51.3 ± 15 ng/mL
  half-life: 6.3 ± 2.3 h
  MRT: 8.5 ± 3.2 h
  Tmax: 2.5 ± 2.4 h
[1]; Sprague-Dawley, PO 1 mg/kg
  AUC(0-inf): 1650 ± 483 ng·h/mL
  Cmax: 183 ± 95.6 ng/mL
  half-life: 6.9 ± 2.1 h
  MRT: 9.9 ± 3.6 h
  Tmax: 2.5 ± 2.5 h
[1]; Sprague-Dawley, PO 3 mg/kg
  AUC(0-inf): 4160 ± 1090 ng·h/mL
  AUC(0-t): 3250 ± 572 ng·h/mL
  Cmax: 301 ± 108 ng/mL
  half-life: 10.3 ± 7.5 h
  MRT: 14.9 ± 10.6 h
  Tmax: 2.9 ± 2.1 h
[1]; Sprague-Dawley, 0.3 mg/kg, PO 0.3 mg/kg, AUC∞,PO / AUC∞,IV, read-out: BA (absolute bioavailability)
  bioavailability: 62.1%
[1]; Sprague-Dawley, 1 mg/kg, PO 1 mg/kg, AUC∞,PO / AUC∞,IV, read-out: BA (absolute bioavailability)
  bioavailability: 58.9%
[1]; Sprague-Dawley, 3 mg/kg, PO 3 mg/kg, AUC∞,PO / AUC∞,IV, read-out: BA (absolute bioavailability)
  bioavailability: 56.3%
[1]; Sprague-Dawley, 3 mg/kg, range over doses 0.3, 1 and 3 mg/kg, read-out: Oral bioavailability
  bioavailability: 56.3 to 62.1%
[2]; 1 mg/kg IV
  Recovery in feces relative to urine: about 6 fold
[2]; 1 mg/kg IV, 0–24 h, 1 mg/kg
  Recovery, Feces: 36.3 % of Dose and 36.3 ± 3.6 % of Dose
  Recovery, Urine: 6.3 % of Dose and 6.3 ± 0.8 % of Dose
[2]; 1 mg/kg IV, 0–72 h, 1 mg/kg
  Recovery, Feces: 39.3 ± 3.5 % of Dose and 39.3 % of Dose
  Recovery, Urine: 6.6 ± 0.7 % of Dose and 6.6 % of Dose
[2]; 1 mg/kg IV, 24–48 h
  Recovery, Feces: 2.7 ± 1.3 % of Dose
  Recovery, Urine: 0.1 ± 0.0 % of Dose
[2]; 1 mg/kg IV, 48–72 h
  Recovery, Feces: 0.4 ± 0.1 % of Dose
[2]; 1 mg/kg PO, 0–24 h
  Recovery, Feces: 50.6 ± 11.1 % of Dose
  Recovery, Urine: 6.6 ± 0.6 % of Dose
[2]; 1 mg/kg PO, 0–72 h
  Recovery, Urine: 6.8 ± 0.6 % of Dose
[2]; 1 mg/kg PO, 0–72 h, 1 mg/kg
  Recovery, Feces: 51.4 % of Dose and 51.4 ± 11.5 % of Dose
[2]; 1 mg/kg PO, 24–48 h
  Recovery, Feces: 0.72 ± 0.4 % of Dose
  Recovery, Urine: 0.1 ± 0.0 % of Dose
[2]; 1 mg/kg PO, 48–72 h
  Recovery, Feces: 0.2 ± 0.1 % of Dose
[2]; ICR, mouse, urine and feces, 1 mg/kg IV, 72 h, read-out: total recovery (feces + urine)
  dose excreted: ~46%
[3]; kidney, repeated dose for 7 days, kidney
  Kp: 37.6 ± 5.9
[3]; kidney, repeated dose for 14 days, kidney
  Kp: 38.4 ± 18
[3]; kidney, single dose, kidney
  Kp: 38.7 ± 6.3
[3]; large intestine, repeated dose for 7 days, large intestine
  Kp: 2.33 ± 0.34
[3]; large intestine, repeated dose for 14 days, large intestine
  Kp: 2.2 ± 0.71
[3]; large intestine, single dose, large intestine
  Kp: 3.24 ± 1.1
[3]; liver, repeated dose for 7 days, liver
  Kp: 3.77 ± 0.73
[3]; liver, repeated dose for 14 days, liver
  Kp: 4.37 ± 2.6
[3]; liver, single dose, liver
  Kp: 4.85 ± 0.64
[3]; repeated dose for 7 days
  AUC(0-t): 2090 ± 290 ng·h/mL
[3]; repeated dose for 14 days
  AUC(0-t): 2360 ± 690 ng·h/mL
[3]; single dose
  AUC(0-t): 2130 ± 270 ng·h/mL
[3]; small intestine, repeated dose for 7 days, small intestine
  Kp: 4.5 ± 0.89
[3]; small intestine, repeated dose for 14 days, small intestine
  Kp: 3.4 ± 1.5
[3]; small intestine, single dose, small intestine
  Kp: 3.47 ± 0.49
[3]; repeated dose for 7 days, kidney
  AUC48 h: 77.2 ± 6.3 µg·h/g
[3]; repeated dose for 7 days, large intestine
  AUC48 h: 4.88 ± 1.1 µg·h/g
[3]; repeated dose for 7 days, liver
  AUC48 h: 7.89 ± 2.1 µg·h/g
[3]; repeated dose for 7 days, small intestine
  AUC48 h: 9.39 ± 2.1 µg·h/g
[3]; repeated dose for 14 days, kidney
  AUC48 h: 81.6 ± 4.8 µg·h/g
[3]; repeated dose for 14 days, large intestine
  AUC48 h: 4.90 ± 1.5 µg·h/g
[3]; repeated dose for 14 days, liver
  AUC48 h: 8.85 ± 1.8 µg·h/g
[3]; repeated dose for 14 days, small intestine
  AUC48 h: 7.46 ± 2.3 µg·h/g
[3]; single dose, kidney
  AUC48 h: 80.9 ± 5.1 µg·h/g
[3]; single dose, large intestine
  AUC48 h: 5.68 ± 1.6 µg·h/g
[3]; single dose, liver
  AUC48 h: 10.2 ± 1.0 µg·h/g
[3]; single dose, small intestine
  AUC48 h: 7.30 ± 0.77 µg·h/g
Hepatocytes [4]
  In vitro hepatic clearance: 8.3 mL/min/kg
Hepatocytes [5]
  In vitro hepatic clearance: 17.9 mL/min/kg
Hepatocytes [6]
  In vitro hepatic clearance: 18.5 mL/min/kg
Hepatocytes [7]
  In vitro hepatic clearance: 4.5 mL/min/kg
